# Source: patent publication US12448394B2, “Heterocyclic pyrazole derivatives as type III receptor tyrosine kinase inhibitors” (DEVELOPMENT CENTER FOR BIOTECHNOLOGY, priority 2019, dated 2025)
# What was measured:
# [1] = system: MV4-11 human acute myeloid leukemia cell with FLT3-ITD mutation; test: MV4-11 cell proliferation assay (CellTiter 96); type: cell-based; settings: Homo sapiens, MV4-11, 72 h, MV4-11 cells, 72 hours treatment, CellTiter96; read-out: anti-proliferation activity MV4-11 (FLT3-ITD), IC50 ranking
# Method in brief: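 Cells seeded at 6500/well in IMDM with 10% heat-inactivated FBS, left overnight at 37 °C, 5% CO2, then exposed to increasing compound concentrations for 72 h. Viability read as absorbance at 490 nm after 2–4 h with CellTiter96 AQueous One reagent.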
# [2] = target: T1, MET kinase (Homo sapiens, UniProt P08581); test: MET kinase assay (AlphaScreen, counter screen); type: biochemical; settings: read-out: Ranking of IC50 values, MET
# T1 construct: purchased SignalChem
# T1 sequence (P08581 25-1390): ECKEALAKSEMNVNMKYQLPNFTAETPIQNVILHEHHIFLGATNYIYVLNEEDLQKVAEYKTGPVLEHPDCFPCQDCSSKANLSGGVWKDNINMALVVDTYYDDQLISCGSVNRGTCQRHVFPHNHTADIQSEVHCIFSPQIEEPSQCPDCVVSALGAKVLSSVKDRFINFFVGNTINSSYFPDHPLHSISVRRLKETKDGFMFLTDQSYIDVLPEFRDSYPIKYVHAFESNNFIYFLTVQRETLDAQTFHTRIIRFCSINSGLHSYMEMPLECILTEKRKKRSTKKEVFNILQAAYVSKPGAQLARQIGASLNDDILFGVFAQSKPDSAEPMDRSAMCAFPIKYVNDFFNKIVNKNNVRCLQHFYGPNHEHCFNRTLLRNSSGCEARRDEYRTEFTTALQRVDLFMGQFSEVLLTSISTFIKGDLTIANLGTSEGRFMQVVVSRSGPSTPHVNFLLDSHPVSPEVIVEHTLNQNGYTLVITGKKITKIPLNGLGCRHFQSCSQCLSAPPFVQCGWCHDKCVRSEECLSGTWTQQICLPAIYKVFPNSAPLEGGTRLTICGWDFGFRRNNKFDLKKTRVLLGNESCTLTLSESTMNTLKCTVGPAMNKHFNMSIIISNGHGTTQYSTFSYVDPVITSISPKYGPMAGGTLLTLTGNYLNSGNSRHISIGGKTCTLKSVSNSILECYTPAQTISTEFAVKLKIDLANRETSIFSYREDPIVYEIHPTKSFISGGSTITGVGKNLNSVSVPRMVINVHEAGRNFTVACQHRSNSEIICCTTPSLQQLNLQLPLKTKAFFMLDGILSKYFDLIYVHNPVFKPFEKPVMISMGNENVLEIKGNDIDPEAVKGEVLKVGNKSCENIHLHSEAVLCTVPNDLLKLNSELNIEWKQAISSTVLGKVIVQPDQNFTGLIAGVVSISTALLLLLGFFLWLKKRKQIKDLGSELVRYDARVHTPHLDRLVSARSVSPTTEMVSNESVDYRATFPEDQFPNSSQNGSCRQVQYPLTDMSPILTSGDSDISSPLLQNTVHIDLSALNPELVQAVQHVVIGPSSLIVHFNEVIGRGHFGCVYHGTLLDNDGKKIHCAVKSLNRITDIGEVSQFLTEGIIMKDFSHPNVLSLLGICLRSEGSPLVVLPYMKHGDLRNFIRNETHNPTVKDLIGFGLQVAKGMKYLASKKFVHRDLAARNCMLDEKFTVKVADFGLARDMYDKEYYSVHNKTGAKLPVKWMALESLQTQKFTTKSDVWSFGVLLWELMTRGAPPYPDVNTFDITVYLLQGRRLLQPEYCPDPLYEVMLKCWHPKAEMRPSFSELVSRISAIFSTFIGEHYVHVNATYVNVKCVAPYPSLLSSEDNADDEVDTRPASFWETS
# Method in brief: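 IC50 came from duplicate serial dilutions, with AlphaScreen detection of phosphorylated biotin-poly(Glu4:Tyr1). The reaction used 1 ng recombinant MET, 10 µM ATP […], and MOPS pH 7.0/MgCl2 buffer, ran 45 min at 30 °C, and was quenched with EDTA.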
# [3] = target: T2, PDGFRα kinase (Homo sapiens, UniProt P16234); test: PDGFRα kinase assay (AlphaScreen); type: biochemical; settings: read-out: Ranking of IC50 values, PDGFRα
# T2 construct: purchased SignalChem
# T2 sequence (P16234 24-1089): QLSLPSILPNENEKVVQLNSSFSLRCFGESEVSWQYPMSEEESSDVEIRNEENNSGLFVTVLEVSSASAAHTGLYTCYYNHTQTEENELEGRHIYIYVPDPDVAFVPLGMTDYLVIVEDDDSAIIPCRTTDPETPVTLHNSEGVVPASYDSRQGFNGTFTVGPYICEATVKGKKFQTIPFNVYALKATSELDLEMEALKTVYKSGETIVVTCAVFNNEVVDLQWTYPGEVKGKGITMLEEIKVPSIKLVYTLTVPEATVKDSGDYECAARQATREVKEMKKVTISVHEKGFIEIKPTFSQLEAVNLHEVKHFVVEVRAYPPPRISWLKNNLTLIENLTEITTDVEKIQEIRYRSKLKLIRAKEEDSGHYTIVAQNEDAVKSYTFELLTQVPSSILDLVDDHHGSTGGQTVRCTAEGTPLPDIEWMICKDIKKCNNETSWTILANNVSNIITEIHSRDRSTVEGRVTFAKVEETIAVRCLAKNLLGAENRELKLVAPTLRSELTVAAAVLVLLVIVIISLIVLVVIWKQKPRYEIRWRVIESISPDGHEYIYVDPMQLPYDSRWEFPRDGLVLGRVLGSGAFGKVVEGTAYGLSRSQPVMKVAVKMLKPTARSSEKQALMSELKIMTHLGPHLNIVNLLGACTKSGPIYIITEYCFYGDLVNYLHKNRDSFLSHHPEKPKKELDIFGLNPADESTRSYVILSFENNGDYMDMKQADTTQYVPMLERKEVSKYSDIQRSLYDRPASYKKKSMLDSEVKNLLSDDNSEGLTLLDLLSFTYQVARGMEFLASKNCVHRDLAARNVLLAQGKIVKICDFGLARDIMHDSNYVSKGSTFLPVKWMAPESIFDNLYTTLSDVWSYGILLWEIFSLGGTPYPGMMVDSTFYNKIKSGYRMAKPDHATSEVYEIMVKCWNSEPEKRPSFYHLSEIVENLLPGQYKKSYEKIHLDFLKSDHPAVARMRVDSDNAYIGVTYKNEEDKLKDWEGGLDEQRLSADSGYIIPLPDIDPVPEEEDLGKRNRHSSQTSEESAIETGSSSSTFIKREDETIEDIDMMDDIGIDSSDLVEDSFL
# Method in brief: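 IC50 values came from duplicate serial dilutions, with product read by AlphaScreen. The reaction ran 30 min at 30 °C, then EDTA stop: 1.5 ng recombinant enzyme, biotin-poly(Glu4:Tyr1) substrate, 10 μM ATP, 10 mM MOPS pH 7.0, 10 mM MgCl2.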
# [4] = system: HCC827 NSCLC cell with EGFR exon 19 deletion mutation; test: HCC827 cell proliferation assay (counter screen); type: cell-based, human; settings: Homo sapiens, HCC827 cells, 72 hours treatment, CellTiter96, read-out: anti-proliferation activity HCC827 EGFR Exon19 del, IC50 ranking
# Method in brief: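 HCC827 cells (EGFR exon 19 deletion) were seeded at 8000 cells/well in RPMI1640 with 10% FBS, then exposed to increasing compound concentrations for 72 h at 37 °C. Viability was read by CellTiter96 AQueous One (MTS), absorbance 490 nm after 2–4 h.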
# [5] = system: Molm-14 human acute myeloid leukemia cell with FLT3-ITD mutation; test: Molm-14 cell proliferation assay (CellTiter 96); type: cell-based; settings: Homo sapiens; Molm-14 cells, 72 hours treatment, CellTiter96; read-out: anti-proliferation activity Molm-14 (FLT3-ITD), IC50 ranking
# Method in brief: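 Molm-14 (FLT3-ITD AML) cells in RPMI 1640 with 10% heat-inactivated FBS were seeded at 25000 cells/well, incubated overnight at 37° C, 5% CO2, then treated with increasing compound concentrations for 72 hours. Viability was read as absorbance at 490 nm after 2˜4 hours with CellTiter96 AQueous One reagent.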
# [6] = system: A375 melanoma cell with BRAF V600E mutation; test: A375 cell proliferation assay (counter screen); type: cell-based, human; settings: Homo sapiens, A-375, A375 cells, 72 hours treatment, CellTiter96, read-out: anti-proliferation activity A375 BRAF V600E, IC50 ranking
# Method in brief: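 A375 cells (BRAF V600E) seeded at 2000 cells/well in DMEM with 10% FBS, settled overnight at 37° C, 5% CO2, then exposed to increasing compound concentrations for 72 hours. Viability read by MTS-type CellTiter96 AQueous reagent, absorbance at 490 nm after 2–4 hours.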
IC50 [1],IC50 [2],IC50 [3],IC50 [5],SMILES,IC50 [4],IC50 [6]
< 30 nM,> 1000 nM,1 to 10 nM,< 30 nM,"Cn1ncc2ccc(-c3n[nH]c4c3Cc3sc(-c5csc(C(=O)N6CCOCC6)c5)cc3-4)cc21 [Compound 48, (4-(3-(1-methyl-1H-indazol-6-yl)-1,4-dihydro-thieno[2′,3′:4,5]cyclopenta [1,2-c]pyrazol-6-yl)thiophen-2-yl) (morpholino)methanone]",> 10000 nM,> 10000 nM
< 30 nM,> 1000 nM,1 to 10 nM,< 30 nM,"CN(C)C(=O)c1ccc(-c2cc3c(s2)Cc2c(-c4ccc5cnn(C)c5c4)n[nH]c2-3)cc1 [Compound 49, N,N-dimethyl-4-(3-(1-methyl-1H-indazol-6-yl)-1,4-dihydrothieno [2′,3′:4,5]cyclopenta [1,2-c]pyrazol-6-yl) benzamide]",> 10000 nM,> 10000 nM
< 30 nM,> 1000 nM,10 to 30 nM,30 to 100 nM,"CN(C)S(=O)(=O)c1ccc(-c2cc3c(s2)Cc2c(-c4ccc5cnn(C)c5c4)n[nH]c2-3)cc1 [Compound 50, N,N-dimethyl-4-(3-(1-methyl-1H-indazol-6-yl)-1,4-dihydrothieno [2′,3′:4,5]cyclopenta [1,2-c]pyrazol-6-yl) benzenesulfonamide]",> 10000 nM,> 10000 nM
< 30 nM,> 1000 nM,10 to 30 nM,30 to 100 nM,"Cn1ncc2ccc(-c3n[nH]c4c3Cc3sc(-c5ccc(CN6CCOCC6)s5)cc3-4)cc21 [Compound 51, 4-((5-(3-(1-methyl-1H-indazol-6-yl)-1,4-dihydro-thieno[2′,3′:4,5]cyclopenta [1,2-c]pyrazol-6-yl)thiophen-2-yl)methyl) morpholine]",> 10000 nM,> 10000 nM
< 30 nM,> 1000 nM,10 to 30 nM,30 to 100 nM,"Cn1ncc2ccc(-c3n[nH]c4c3Cc3sc(-c5csc(CN6CCOCC6)c5)cc3-4)cc21 [Compound 52, 4-((4-(3-(1-methyl-1H-indazol-6-yl)-1,4-dihydro-thieno[2′,3′:4,5]cyclopenta [1,2-c]pyrazol-6-yl)thiophen-2-yl)methyl) morpholine]",> 10000 nM,> 10000 nM
30 to 100 nM,> 1000 nM,30 to 100 nM,100 to 300 nM,"Cn1ncc2ccc(-c3n[nH]c4c3Cc3sc(-c5cc(F)c(CN6CCOCC6)c(F)c5)cc3-4)cc21 [Compound 53, 4-(2,6-difluoro-4-(3-(1-methyl-1H-indazol-6-yl)-1,4-dihydrothieno [2′,3′:4,5]cyclopenta [1,2-c]pyrazol-6-yl)benzyl)morpholine]",> 10000 nM,> 10000 nM
< 30 nM,> 1000 nM,1 to 10 nM,30 to 100 nM,"C[C@@H]1CN(Cc2ccc(-c3cc4c(s3)Cc3c(-c5ccc6cnn(C)c6c5)n[nH]c3-4)cc2)C[C@H](C)O1 [Compound 54, (2S,6R)-2,6-dimethyl-4-(4-(3-(1-methyl-1H-indazol-6-yl)-1,4-dihydro-thieno[2′,3′:4,5]cyclopenta [1,2-c]pyrazol-6-yl)benzyl)morpholine]",> 10000 nM,> 10000 nM
< 30 nM,> 1000 nM,1 to 10 nM,30 to 100 nM,"Cn1ncc2ccc(-c3n[nH]c4c3Cc3sc(-c5cc(C(=O)N6CCOCC6)ccn5)cc3-4)cc21 [Compound 56, (2-(3-(1-methyl-1H-indazol-6-yl)-1,4-dihydro-thieno[2′,3′:4,5]cyclopenta [1,2-c]pyrazol-6-yl)pyridin-4-yl)(morpholino) methanone]",> 10000 nM,> 10000 nM
< 30 nM,> 1000 nM,10 to 30 nM,< 30 nM,"Cn1ncc2ccc(-c3n[nH]c4c3Cc3sc(C5=CCN(C(=O)N6CCOCC6)CC5)cc3-4)cc21 [Compound 57, (4-(3-(1-methyl-1H-indazol-6-yl)-1,4-dihydro-thieno[2′,3′:4,5]cyclopenta [1,2-c]pyrazol-6-yl)-3,6-dihydropyridin-1(2H)-yl) (morpholino)methanone]",> 10000 nM,> 10000 nM
30 to 100 nM,> 1000 nM,30 to 100 nM,100 to 300 nM,"Cn1ncc2ccc(-c3n[nH]c4c3Cc3sc(C5CCN(C(=O)OC(C)(C)C)CC5)cc3-4)cc21 [Compound 58, tert-butyl-4-(3-(1-methyl-1H-indazol-6-yl)-1,4-dihydrothieno[2′,3′:4,5]cyclopenta[1,2-c]pyrazol-6-yl)piperidine-1-carboxylate]",> 10000 nM,> 10000 nM
< 30 nM,> 1000 nM,1 to 10 nM,< 30 nM,"Cn1ncc2ccc(-c3n[nH]c4c3Cc3sc(-c5ccc(CN6CCOCC6=O)cc5)cc3-4)cc21 [Compound 59, 4-(4-(3-(1-methyl-1H-indazol-6-yl)-1,4-dihydro-thieno[2′,3′:4,5]cyclopenta [1,2-c]pyrazol-6-yl)benzyl)morpholin-3-one]",> 10000 nM,> 10000 nM
< 30 nM,> 1000 nM,1 to 10 nM,< 30 nM,"Cn1ncc2ccc(-c3n[nH]c4c3Cc3sc(-c5csc(C(=O)N6CCOCC6)n5)cc3-4)cc21 [Compound 60, (4-(3-(1-methyl-1H-indazol-6-yl)-1,4-dihydro-thieno[2′,3′:4,5]cyclopenta [1,2-c]pyrazol-6-yl)thiazol-2-yl)(morpholino) methanone]",1000 to 10000 nM,1000 to 10000 nM
< 30 nM,> 1000 nM,1 to 10 nM,< 30 nM,"Cn1ncc2ccc(-c3n[nH]c4c3Cc3sc(-c5ccc(CN6CCCCC6=O)cc5)cc3-4)cc21 [Compound 61, 1-(4-(3-(l-methyl-1H-indazol-6-yl)-1,4-dihydro-thieno[2′,3′:4,5]cyclopenta [1,2-c]pyrazol-6-yl)benzyl)piperidin-2-one]",> 10000 nM,> 10000 nM
< 30 nM,> 1000 nM,1 to 10 nM,< 30 nM,"Cn1ncc2ccc(-c3n[nH]c4c3Cc3sc(-c5ccc(CN6CCNC(=O)C6)cc5)cc3-4)cc21 [Compound 63, 4-(4-(3-(1-methyl-1H-indazol-6-yl)-1,4-dihydro-thieno[2′,3′:4,5]cyclopenta [1,2-c]pyrazol-6-yl)benzyl)piperazin-2-one]",> 10000 nM,> 10000 nM
< 30 nM,> 1000 nM,10 to 30 nM,< 30 nM,"Cn1ncc2ccc(-c3n[nH]c4c3Cc3sc(-c5ccc(CN6CCCC6=O)cc5)cc3-4)cc21 [Compound 64, 1-(4-(3-(1-methyl-1H-indazol-6-yl)-1,4-dihydro-thieno[2′,3′:4,5]cyclopenta [1,2-c]pyrazol-6-yl)benzyl)pyrrolidin-2-one]",> 10000 nM,> 10000 nM
< 30 nM,> 1000 nM,1 to 10 nM,< 30 nM,"CC1C(=O)N(C)CCN1Cc1ccc(-c2cc3c(s2)Cc2c(-c4ccc5cnn(C)c5c4)n[nH]c2-3)cc1 (stereo not drawn) [Compound 65, 1,3-dimethyl-4-(4-(3-(1-methyl-1H-indazol-6-yl)-1,4-dihydrothieno [2′,3′:4,5]cyclopenta [1,2-c]pyrazol-6-yl)benzyl)piperazin-2-one]",> 10000 nM,> 10000 nM
< 30 nM,> 1000 nM,> 1000 nM,< 30 nM,"Cn1ncc2ccc(-c3n[nH]c4c3Cc3sc(-c5ccc(CCN6CCOCC6=O)cc5)cc3-4)cc21 [Compound 66, 4-(4-(3-(1-methyl-1H-indazol-6-yl)-1,4-dihydro-thieno[2′,3′:4,5]cyclopenta [1,2-c]pyrazol-6-yl)phenethyl)morpholin-3-one]",> 10000 nM,> 10000 nM
